# Tests used:
# [1] = tested on: stretch symptom induced by phenylquinone; assay: Analgesic Activity (phenylquinone-induced stretch symptom, method of Hendershot et al); assay type: in vivo, Male ddY mice; conditions: Mus musculus, po; mice, p.o., 1 h before 0.02% phenylquinone i.p., stretch frequency for 20 min; read-out: ED50, Pharmacological Experiment (1), analgesic activity
# Description: The experiment was performed according to the method of Hendershot et al described in J. Pharmacol. Exp. Ther., vol. 125, P. 237 (1959). Male ddY mice weighing 18-25 g were used in groups of 6-18. One hour after the oral administration of test compound solution (10 ml/kg), 10 ml/kg of 0.02% aqueous phenylquinone solution was intraperitoneally administered to the animal. The frequency of stretch symptom thus induced measured for 20 minutes. The inhibitory rate was determined in comparison with the control group and the 50% effective dose (ED50, mg/kg) was caluculated according to the linear regression method.
# [2] = tested on: Chronic Inflammation (adjuvant arthritis); assay: Effect on Chronic Inflammation (adjuvant arthritis, method of Newbould); assay type: in vivo, male Lewis rats; conditions: Rattus norvegicus, po; adjuvant arthritis rats, p.o. once a day from 15th to 24th day, decrease of foot volume vs 15th day; read-out: MED, Pharmacological Experiment (3), chronic inflammation
# Description: Effect on Chronic Inflammation The experiment was performed by employing 10-week old male Lewis rats according to the method of Newbould described in Brit. J. Pharmacol., vol. 21, p. 127 (1963). Dead tubercle bacilli ([…] H5 type) suspended in liquid paraffin (0.5 mg/0.1 ml) was inoculated as adjuvant into the skin at the base of tail. Animals with arthritis were chosen on the 15th day and divided into groups of seven. Test compound solution (5 ml/kg) was orally administered once a day from 15th day of 24th day consecutively. The rate of change of the foot volume on the 24th day against the foot volume on the 15th day was calculated, and the inhibitory rate was determined as compared with the control group. The minimun effective dose (MED, mg/kg) was obtained based on the dose indicating the decrease of foot volume than the foot volume on the 15th day.
# [3] = tested on: Platelet Aggregation induced by Arachidonic Acid; assay: Effect on the Platelet Aggregation induced by Arachidonic Acid; assay type: cell-based, Male Hartley guinea pigs; conditions: Cavia porcellus, guinea pig PRP, 37° C., arachidonic acid 5×10^-4 M, maximum aggregation value, read-out: IC50, Pharmacological Experiment (4), platelet aggregation
# Description: Effect on the Platelet Aggregation induced by Arachidonic Acid
# Male Hartley guinea pigs weighing 400-500 g were subjected to the abdominal operation under etherization. The citrated blood (9 volumes of blood and one volume of 3.8% sodium citrate solution) was collected from the abdominal aorta. Immediately, the blood was centrifuged at 150×g for 3 minutes to obtained platelet-rich plasma (PRP) as a supernatant. The remaining blood was centrifuged at 1400×g for 10 minutes to obtain platelet-poor plasma (PPP) as a supernatant. The number of platelet in PRP was adjusted to 4-6×10^5 platelets/mm^3 by adding PPP thereto The platelet aggregation was measured by using a platelet aggregometer according to the method of Born et al described in J. Physiol., vol. 168, p. 178 (1963). Test compound solution was added to PRP under stirring at 1500 rpm at 37° C., and two minutes later arachidonic acid (final concentration: 5×10^-4 M) is added thereto. The change of transmittance was recorded consecutively. The transmittance was adjusted to 0 and 100% with PRP and PPP, respectively. The inhibitory rate was calculated against the control group by using the maximum aggregation value as an index, and 50% inhibitory concentration(IC50, μg/ml) was determined by the linear regression method.
# [4] = tested on: Acute Inflammation (carrageenin); assay: Effect on Acute Inflammation (carrageenin hind paw, method of Winter et al); assay type: in vivo, Male Donryu rats; conditions: Rattus norvegicus, po; rats, p.o., 1 h before 1% carrageenin, foot volume 3 h later; read-out: ED50, Pharmacological Experiment (2), acute inflammation
# Description: Effect on Acute Inflammation
# The experiment was performed according to the method of Winter et al described in Proc. Soc. Exp. Biol. Med., vol. 111, p. 544 (1962). Male Donryu rats weighing about 140 g which was fastened for 18 hours were used in groups of five animals. Test compound solution was orally administered and one hour later, 0.05 ml of saline solution containing 1% carrageenin was injected into the right hind paw. Three hours later, the foot volume was measured by the water displacement method. The rate of increase against the foot volume before the injection of carrageenin was calculated, and the inhibitory rate was determined as compared with the control group. The 50% effective dose (ED50, mg/kg) was determined by the linear regression method.
IC50 [3] [µg/mL],Compound,ED50 [1] [mg/kg],minimal effective dose [2] [mg/kg],ED50 [4] [mg/kg]
1.05,"Cn1nc(-c2cc(C(C)(C)C)c(O)c(C(C)(C)C)c2)c2cccnc21 [Compound A, 3-(3,5-di-tertiarybutyl-4-hydroxyphenyl)-1-methyl-1H-pyrazolo[3,4-b]pyridine]",9.5,0.3,70
0.09,"CC(C)(C)c1cc(-c2nn(CCO)c3ncccc23)cc(C(C)(C)C)c1O [Compound B, 3-(3,5-di-tertiarybutyl-4-hydroxyphenyl)-1-(2-hydroxyethyl)-1H-pyrazolo [3,4-b]pyridine]",19,3,44
0.95,"CCC(=O)OCCn1nc(-c2cc(C(C)(C)C)c(O)c(C(C)(C)C)c2)c2cccnc21 [Compound C, 3-(3,5-di-tertiarybutyl-4-hydroxyphenyl)-1-(2""propionyloxyethyl)-1H-pyrazolo [3,4-]pyridine]",1.1,0.3,8
0.12,"CCOC(=O)CCn1nc(-c2cc(C(C)(C)C)c(O)c(C(C)(C)C)c2)c2cccnc21 [Compound D, 3-(3,5-di-tertiarybutyl-4-hydroxyphenyl)-1-(2-ethoxycarbonylethyl)-1H-pyrazolo [3,4-b]pyridine]",0.56,1,8.3

Compound,IC50 [3] [µg/mL],ED50 [1] [mg/kg],minimal effective dose [2] [mg/kg],ED50 [4] [mg/kg]
"CC(=O)OCCn1nc(-c2cc(C(C)(C)C)c(O)c(C(C)(C)C)c2)c2cccnc21 [Compound E, 1-(acetoxyethyl)-3-(3,5-di-tertiarybutyl-4-hydroxyphenyl)-1H-pyrazolo[3,4-b]pyridine]",0.9,0.35,0.3,14

# From patent publication US4808620A, “Pyrazolopyridine compounds, their preparation and use as platelet aggregation inhibitors” (Yoshitomi Pharmaceutical Industries, Ltd., priority 1986, dated 1989)
